Earlier results on four molecules are cited in US6849271B2, “Microcapsule matrix microspheres, absorption-enhancing pharmaceutical compositions and methods” (Verion, Inc., priority 2001, dated 2005).

The conditions of the data set: published by the FDA.

Structures are written as SMILES.

Regarding `CC1(C)S[C@@H]2[C@H](NC(=O)[C@H](N)c3ccc(O)cc3)C(=O)N2[C@H]1C(=O)O` [Amoxicillin], the permeability class entry is “Low”.
In the case of `C[C@](N)(Cc1ccc(O)c(O)c1)C(=O)O` [L-Methyldopa], the permeability class result is recorded as “Low”.
In the case of `OC[C@@H](O)[C@@H](O)[C@H](O)[C@H](O)CO` [Mannitol], the permeability class entry was “Low”.
Turning to `CNC(=C[N+](=O)[O-])NCCSCc1ccc(CN(C)C)o1` [Ranitidine], the permeability class entry was “Low”.
